This experiment has as its target human LPAR1 (Homo sapiens, UniProt Q92633). In words: LPAR1 intracellular calcium mobilization assay (antagonist mode). (In general: A change in cytosolic calcium serves as a functional read-out for many receptors and channels.)

Chain of human LPAR1 (Q92633 whole entry): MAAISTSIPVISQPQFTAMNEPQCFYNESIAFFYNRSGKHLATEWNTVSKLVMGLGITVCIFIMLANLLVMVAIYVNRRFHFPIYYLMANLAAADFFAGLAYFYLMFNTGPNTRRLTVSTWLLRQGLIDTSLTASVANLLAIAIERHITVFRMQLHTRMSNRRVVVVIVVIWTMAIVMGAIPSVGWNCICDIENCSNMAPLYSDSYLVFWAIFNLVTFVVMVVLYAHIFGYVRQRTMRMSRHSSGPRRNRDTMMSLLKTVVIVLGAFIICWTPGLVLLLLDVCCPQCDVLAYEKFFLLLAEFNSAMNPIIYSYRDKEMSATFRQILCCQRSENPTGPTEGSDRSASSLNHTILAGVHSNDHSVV

Regarding `COCc1ccccc1[C@@H](C)OC(=O)Nc1c(-c2ccc(NS(C)(=O)=O)c(C)n2)nnn1C` [Compound 35, (R)-1-(2-(methoxymethyl)phenyl)ethyl (1-methyl-4-(6-methyl-5-(methylsulfonamido)pyridin-2-yl)-1H-1,2,3-triazol-5-yl)carbamate], the EC50 (commonly the concentration that produces a half-maximal response) stood at 327 nM.
Then `Cc1nc(-c2nnn(C)c2NC(=O)O[C@@H](c2cccc(Cl)c2)C(F)F)ccc1NS(C)(=O)=O` [Compound 62, (S)-1-(3-chlorophenyl)-2,2-difluoroethyl (1-methyl-4-(6-methyl-5-(methylsulfonamido)pyridin-2-yl)-1H-1,2,3-triazol-5-yl)carbamate], with 29 nM; and `Cc1nc(-c2nnn(C)c2NC(=O)O[C@H](C)c2cccnc2C)ccc1NS(C)(=O)=O` [Compound 141, (R)-1-(2-methylpyridin-3-yl)ethyl (1-methyl-4-(6-methyl-5-(methylsulfonamido)pyridin-2-yl)-1H-1,2,3-triazol-5-yl)carbamate], with 723 nM; and `Cc1nc(-c2nnn(C)c2NC(=O)O[C@H](CC#N)c2ccccc2)ccc1NS(C)(=O)=O` [Compound 50, (R)-2-cyano-1-phenylethyl (1-methyl-4-(6-methyl-5-(methylsulfonamido)pyridin-2-yl)-1H-1,2,3-triazol-5-yl)carbamate], with 730 nM.
Then `Cc1nc(-c2nnn(C)c2NC(=O)O[C@H](C)c2cc(F)cc(F)c2)ccc1NS(C)(=O)=O` [Compound 53, (R)-1-(3,5-difluorophenyl)ethyl (1-methyl-4-(6-methyl-5-(methylsulfonamido)pyridin-2-yl)-1H-1,2,3-triazol-5-yl)carbamate], with 170 nM; and `C[C@@H](OC(=O)Nc1c(-c2ccc(NS(C)(=O)=O)c(C(F)F)n2)nnn1C)c1ccccc1` [Compound 150, (R)-1-phenylethyl (4-(6-(difluoromethyl)-5-(methylsulfonamido)pyridin-2-yl)-1-methyl-1H-1,2,3-triazol-5-yl)carbamate], with 1050 nM.
As for `Cc1nc(-c2nnn(C)c2NC(=O)N[C@@H](c2ccccc2)C(F)(F)F)ccc1NS(C)(=O)=O` [Compound 66, (S)-N-(2-methyl-6-(1-methyl-5-(3-(2,2,2-trifluoro-1-phenylethyl)ureido)-1H-1,2,3-triazol-4-yl)pyridin-3-yl)methanesulfonamide], the EC50 was 540 nM.
Then `Cc1nc(-c2nnn(C)c2NC(=O)O[C@H](C)c2cc(F)ncc2Cl)ccc1NS(C)(=O)=O` [Compound 123, (R)-1-(5-chloro-2-fluoropyridin-4-yl)ethyl (1-methyl-4-(6-methyl-5-(methylsulfonamido)pyridin-2-yl)-1H-1,2,3-triazol-5-yl)carbamate], with 86.1 nM; and `COCc1nc(-c2nnn(C)c2NC(=O)O[C@H](C)c2cc(F)cnc2Cl)ccc1NS(C)(=O)=O` [Compound 144, (R)-1-(2-Chloro-5-fluoropyridin-3-yl)ethyl (4-(6-(methoxymethyl)-5-(methylsulfonamido)pyridin-2-yl)-1-methyl-1H-1,2,3-triazol-5-yl)carbamate], with 235 nM.
Take `Cn1nnc(-c2ccc(NS(C)(=O)=O)c(F)n2)c1NC(=O)O[C@@H](c1ccccc1)C(F)F` [Compound 6, (S)-2,2-difluoro-1-phenylethyl (4-(6-fluoro-5-(methylsulfonamido)pyridin-2-yl)-1-methyl-1H-1,2,3-triazol-5-yl)carbamate]: the concentration giving a half-maximal response (EC50) turned out to be 71.3 nM.
Take `Cc1nc(-c2nnn(C)c2NC(=O)O[C@H](C)c2cc(Cl)ccc2Cl)ccc1NS(C)(=O)=O` [Compound 61, (R)-1-(2,5-dichlorophenyl)ethyl (1-methyl-4-(6-methyl-5-(methylsulfonamido)pyridin-2-yl)-1H-1,2,3-triazol-5-yl)carbamate]: the EC50 was 30 nM.
With `C[C@@H](OC(=O)Nc1c(-c2ccc(NS(C)(=O)=O)c(Cl)n2)nnn1C)c1cccnc1Cl` [Compound 154, (R)-1-(2-chloropyridin-3-yl)ethyl (4-(6-chloro-5-(methylsulfonamido)pyridin-2-yl)-1-methyl-1H-1,2,3-triazol-5-yl)carbamate], the EC50 was determined as 278 nM.
Regarding `Cc1nc(-c2nnn(C)c2NC(=O)OCc2cccc(F)c2)ccc1NS(C)(=O)=O` [Compound 91, 3-fluorobenzyl(1-methyl-4-(6-methyl-5-(methylsulfonamido)pyridin-2-yl)-1H-1,2,3-triazol-5-yl)carbamate], the EC50 was determined as 72.6 nM.
As for `Cc1nc(-c2nnn(C)c2NC(=O)O[C@H](CF)c2ccccc2F)ccc1NS(C)(=O)=O` [Compound 44, (S)-2-fluoro-1-(2-fluorophenyl)ethyl (1-methyl-4-(6-methyl-5-(methylsulfonamido)pyridin-2-yl)-1H-1,2,3-triazol-5-yl)carbamate], the half-maximal effective concentration (EC50) amounted to 50 nM.
Then `COCc1nc(-c2nnn(C)c2NC(=O)O[C@H](C)c2cccnc2Cl)ccc1NS(C)(=O)=O` [Compound 145, (R)-1-(2-chloropyridin-3-yl)ethyl (4-(6-(methoxymethyl)-5-(methylsulfonamido)pyridin-2-yl)-1-methyl-1H-1,2,3-triazol-5-yl)carbamate], with 493 nM; and `Cc1ccncc1C(C)OC(=O)Nc1c(-c2ccc(NS(C)(=O)=O)c(C)n2)nnn1C` (stereo not shown) [Compound 82, 1-(4-methylpyridin-3-yl)ethyl (1-methyl-4-(6-methyl-5-(methylsulfonamido)pyridin-2-yl)-1H-1,2,3-triazol-5-yl)carbamate], with 2300 nM.
As for `Cc1nc(-c2nnn(C)c2NC(=O)O[C@H](C)c2ccccc2Cl)ccc1N(C)S(C)(=O)=O` [Compound 86, (R)-1-(2-chlorophenyl)ethyl(1-methyl-4-(6-methyl-5-(N-methylmethylsulfonamido)pyridin-2-yl)-1H-1,2,3-triazol-5-yl)carbamate], the concentration for a half-maximal effect (EC50) amounted to 55.4 nM.
Consider `Cc1nc(-c2nnn(C)c2NC(=O)OC(C)c2ncccc2Cl)ccc1NS(C)(=O)=O` (stereo not shown) [Compound 131, 1-(3-chloropyridin-2-yl)ethyl (1-methyl-4-(6-methyl-5-(methylsulfonamido)pyridin-2-yl)-1H-1,2,3-triazol-5-yl)carbamate], for which the EC50 was determined as 675 nM.
Then `Cn1nnc(-c2ccc(NS(C)(=O)=O)cn2)c1NC(=O)OCc1cccc(Cl)c1` [Compound 20, 3-chlorobenzyl (1-methyl-4-(5-(methylsulfonamido)pyridin-2-yl)-1H-1,2,3-triazol-5-yl)carbamate], with 117 nM; and `Cc1nc(-c2nnn(C)c2NC(=O)O[C@H](C)c2ccccc2F)ccc1NS(C)(=O)=O` [Compound 93, (R)-1-(2-fluorophenyl)ethyl(1-methyl-4-(6-methyl-5-(methylsulfonamido)pyridin-2-yl)-1H-1,2,3-triazol-5-yl)carbamate], with 41.3 nM; and `COCC(OC(=O)Nc1c(-c2ccc(NS(C)(=O)=O)c(C)n2)nnn1C)c1ccccc1` (stereo not shown) [Compound 34, 2-methoxy-1-phenylethyl (1-methyl-4-(6-methyl-5-(methylsulfonamido)pyridin-2-yl)-1H-1,2,3-triazol-5-yl)carbamate], with 469 nM.
The value for `Cc1nc(-c2nnn(C)c2NC(=O)OCc2cc(F)ccc2Cl)ccc1NS(C)(=O)=O` [Compound 38, 2-chloro-5-fluorobenzyl (1-methyl-4-(6-methyl-5-(methylsulfonamido)pyridin-2-yl)-1H-1,2,3-triazol-5-yl)carbamate] was 167 nM; that for `Cc1nc(-c2nnn(C)c2NC(=O)OC(c2cccnc2Cl)C(F)F)ccc1NS(C)(=O)=O` (stereo not shown) [Compound 137, 1-(2-chloropyridin-3-yl)-2,2-difluoroethyl (1-methyl-4-(6-methyl-5-(methylsulfonamido)pyridin-2-yl)-1H-1,2,3-triazol-5-yl)carbamate] was 493 nM.
Consider `Cc1nc(-c2nnn(C)c2NC(=O)O[C@@H](c2ccccc2F)C(F)(F)F)ccc1NS(C)(=O)=O` [Compound 97, (S)-2,2,2-trifluoro-1-(2-fluorophenyl)ethyl(1-methyl-4-(6-methyl-5-(methylsulfonamido)pyridin-2-yl)-1H-1,2,3-triazol-5-yl)carbamate], for which the half-maximal effective concentration (EC50) was determined as 387 nM.
As for `Cc1nc(-c2nnn(C)c2NC(=O)OCCCC(C)C)ccc1NS(C)(=O)=O` [Compound 29, 4-methylpentyl (1-methyl-4-(6-methyl-5-(methylsulfonamido)pyridin-2-yl)-1H-1,2,3-triazol-5-yl)carbamate], the EC50 stood at 325 nM.
In the case of `C[C@@H](OC(=O)Nc1c(-c2ncc(NS(C)(=O)=O)cc2F)nnn1C)c1cccc(F)c1` [Compound 88, (R)-1-(3-fluorophenyl)ethyl(4-(3-fluoro-5-(methylsulfonamido)pyridin-2-yl)-1-methyl-1H-1,2,3-triazol-5-yl)carbamate], the concentration for a half-maximal effect (EC50) turned out to be 256 nM.
Consider `Cc1nc(-c2nnn(C)c2NC(=O)OC(C)c2ccnc(F)c2Cl)ccc1NS(C)(=O)=O` (stereo not shown) [Compound 77, 1-(3-chloro-2-fluoropyridin-4-yl)ethyl (1-methyl-4-(6-methyl-5-(methylsulfonamido)pyridin-2-yl)-1H-1,2,3-triazol-5-yl)carbamate], for which the concentration giving a half-maximal response (EC50) was 79.2 nM.
With `C[C@@H](OC(=O)Nc1c(-c2ccc(NS(C)(=O)=O)cn2)nnn1C)c1cccc(Cl)c1` [Compound 14, (R)-1-(3-chlorophenyl)ethyl (1-methyl-4-(5-(methylsulfonamido)pyridin-2-yl)-1H-1,2,3-triazol-5-yl)carbamate], the EC50 came out at 66.3 nM.
Then `Cc1nc(-c2nnn(C)c2NC(=O)O[C@H](CF)c2cccc(F)c2)ccc1NS(C)(=O)=O` [Compound 43, (S)-2-fluoro-1-(3-fluorophenyl)ethyl (1-methyl-4-(6-methyl-5-(methylsulfonamido)pyridin-2-yl)-1H-1,2,3-triazol-5-yl)carbamate], with 18.4 nM; and `CNS(=O)(=O)Nc1ccc(-c2nnn(C)c2NC(=O)O[C@H](C)c2cc(F)cnc2Cl)nc1` [Compound 162, (R)-1-(2-chloro-5-fluoropyridin-3-yl)ethyl (1-methyl-4-(5-((N-methylsulfamoyl)amino)pyridin-2-yl)-1H-1,2,3-triazol-5-yl)carbamate], with 81.7 nM; and `Cc1nc(-c2nnn(C)c2NC(=O)O[C@H](C)c2cccc(F)c2)ccc1NS(=O)(=O)C1CC1` [Compound 106, (R)-1-(3-fluoro-phenyl)ethyl(4-(5-(cyclopropane-sulfonamido)-6-methylpyridin-2-yl)-1-methyl-1H-1,2,3-triazol-5-yl)carbamate], with 313 nM.

For the origin of these results see patent US11548871B2, “Triazole carbamate pyridyl sulfonamides as LPA receptor antagonists and uses thereof” (Gilead Sciences, Inc., priority 2019, dated 2023).
